The record followed here is article PMC8705409, “Synthesis of sp^2-Iminosugar Selenoglycolipids as Multitarget Drug Candidates with Antiproliferative, Leishmanicidal and Anti-Inflammatory Properties” (Molecules, 2021).

Molecules are shown by their SMILES. “Also recorded” adds a separate entry of the source.

A short description of data set [1]: Cellular toxicity, MTT assay, MRC-5. As to conditions: human, maximal concentration 200 µM, read-out: EC50 MRC-5 Cell Line (cytotoxicity). In kind it is cell-based. The method, then: (§1) Human myelomonocytic cell line THP-1 was grown at 37 °C and 5% CO2 in RPMI-1640 supplemented with 10% iFBS, 2 mM […], 100 U/mL penicillin and 100 μg/mL streptomycin. 3 × 10^4 cells/well in 96-well plates were differentiated to macrophages with 20 ng/mL of PMA treatment for 48 h followed by 24 h of culture in fresh medium. MRC5 cells were grown at 37 °C and 5% CO2 in DMEM complete media. 4000 cells/well in 96-well plates were incubated for 24 h at 37 °C and 5% CO2.
(§2) Cellular toxicity of all compounds was determined using the colorimetric MTT-based assay after incubation at 37 °C for 72 h in the presence of increasing concentrations of compounds (final maximal concentrations 200 µM). The results are expressed as EC50 values, as the concentration of the compound that reduce cell growth by 50% versus untreated control cells. Assays were performed in triplicate.

Data set [2] has as its system HBL-100 (breast) human solid tumor cell line. As to the kind of experiment: Antiproliferative SRB assay (HTS), HBL-100. As to conditions: 48 h. In kind it is cell-based. The method, then: (§3) All reagents were used as purchased from commercial suppliers without further purification. The human solid tumor cell lines used in this study were: A549, SW1573 (lung), HBL-100, T-47D (breast), HeLa (cervix) and WiDr (colon). These cell lines were a kind gift from Prof. G.J. Peters (VU Medical Center, Amsterdam, The Netherlands).
(§4) Cells were inoculated onto 96-well microtiter plates in a volume of 100 μL per well at densities of 2500 (A549, HBL-100, HeLa, and SW1573) and 5000 (T-47D and WiDr) cells per well, based on their doubling times. Compounds were initially dissolved in DMSO at 400 times the desired final maximum test concentration. Control cells were exposed to an equivalent concentration of DMSO (0.25% v/v, negative control). Each agent was tested in triplicate at different dilutions in the range of 1–100 μM. The drug treatment started on day 1 after plating. Drug incubation times were 48 h, after which cells were precipitated with 25 μL ice-cold TCA (50% w/v) and fixed for 60 min at 4 °C. Then the SRB assay was performed. The optical density (OD) of each well was measured at 530 nm, using BioTek’s PowerWave XS Absorbance Microplate Reader. Values were corrected for background OD from wells only containing medium. The antiproliferative activity for each compound, expressed as GI50 values, was calculated according to NCI formulas.

Data set [3] has as its system intracellular amastigotes of Leishmania donovani HU3. As to the kind of experiment: Susceptibility of intracellular Leishmania amastigotes (luciferase) in THP-1 macrophages. In kind it is cell-based. As to conditions: L. donovani HU3 in macrophage-differentiated THP-1, 72 h, threshold 20 μM. The method, then: Macrophage-differentiated-THP-1 cells, which are considered a suitable model for human macrophages, were plated at a density of 3 × 10^4 macrophages/well in 96-well white polystyrene microplates, and were infected at a macrophage/parasite ratio of 1:10 with L. donovani HU3 promastigotes. 24 h after infection at 35 °C and 5% CO2, extracellular parasites were removed by washing with serum-free medium. Infected cell cultures were then incubated at different compound concentrations in RPMI 1640 medium plus 10% iFBS at 37 °C with 5% CO2 for 72 h. To determine the susceptibility of L. donovani-LUC amastigotes, infected macrophages maintained in 96-well plates were lysed and then luminescence intensity was measured as indicative of the intracellular parasite growth, using the Luciferase Assay System Kit (Promega, Madison, WI, USA) according to the instructions of the supplier.

Data set [4] deals with SW1573 (lung) human solid tumor cell line. As to the kind of experiment: Antiproliferative SRB assay (HTS), SW1573. In kind it is cell-based. As to conditions: 48 h. How it is done:
as §3, §4

Data set [5] has as its system T-47D (breast) human solid tumor cell line. As to the kind of experiment: Antiproliferative SRB assay (HTS), T-47D. In kind it is cell-based. As to conditions: T47D, 48 h. The method, then:
as §3, §4

The subject of data set [6] is human solid tumor cell lines A549, SW1573, HBL-100, T-47D, HeLa, WiDr. As to the kind of experiment: Antiproliferative SRB assay (HTS), whole panel of six cell lines. In kind it is cell-based. As to conditions: for GI50: Homo sapiens, range over the six tumor cell lines, read-out: GI50 against all the cell lines tested. How it is done:
as §3, §4

For data set [7], the system named is HeLa (cervix) human solid tumor cell line. As to the kind of experiment: Antiproliferative SRB assay (HTS), HeLa. In kind it is cell-based. As to conditions: 48 h. The method, then: as §3, §4
A short description of data set [8]: Cellular toxicity, MTT assay, THP-1. In kind it is cell-based. As to conditions: human, maximal concentration 200 µM, read-out: EC50 THP-1 Cell Line (cytotoxicity). The method, then:
as §1, §2

The test system of data set [9] is A549 (lung) human solid tumor cell line. Briefly: Antiproliferative SRB assay (HTS), A549. As to conditions: 48 h. In kind it is cell-based. The method, then: as §3, §4
Data set [10] concerns WiDr (colon) human solid tumor cell line. Briefly: Antiproliferative SRB assay (HTS), WiDr. In kind it is cell-based. As to conditions: 48 h. The method, then: as §3, §4
In data set [11] the test system is nitrite production in Bv.2 microglial cells. As to the kind of experiment: Nitrite production in LPS-stimulated Bv.2 cells (Griess method). In kind it is cell-based, mouse. As to conditions: LPS 200 ng/mL, 24 h. The method, then: (§5) Mouse microglia Bv.2 cell line was supplied by Dr. M.L. Nieto (IBGM, Valladolid, Spain). Bv.2 cells were cultured at 37 °C in a humidified atmosphere with 5% CO2 in RPMI supplemented with 10% (v/v) heat-inactivated FBS, 1% (v/v) penicillin/streptomycin (Sigma) and 2 mM L-glutamine (Gibco, Carlsbad, CA, USA). Cells were grown up to 70% confluence and then washed twice with PBS and further cultured in serum-free medium and stimulated with LPS (200 ng/mL) with or without 14/10 (0.1–50 µM) for 24 h.
Nitrite levels were measured by using the Griess method. Briefly, nitrites turn into a pink compound in contact with an acid solution containing 1% sulphanilamide and 0.1% N-(1-naphthyl)ethylenediamine (NEDA), and can be quantified by a colorimetric method at 540 nm in a microplate reader (Versamax Tunable Microplate reader, Molecular Devices, Sunnyvaley, CA, USA).

Data set [12] deals with arginase-1 expression in Bv.2 microglial cells. As to the kind of experiment: Arginase-1 levels (Western blot). In kind it is cell-based, mouse. As to conditions: Bv.2 cells, absence or presence of LPS 200 ng/mL; 10 at 10 μM, 14 at 50 μM. How it is done: as §5
(§6) Bv.2 microglial cells were homogenized in lysis buffer containing 50 mM Tris-HCl, pH 7.4, 150 mM NaCl, 1 mM Na3VO4, 1 mM NaF, 1 mM EGTA, […] and 0.25% (w/v) sodium deoxycholate, supplemented with protease inhibitors (10 µg/mL leupeptin, 10 µg/mL aprotinin, and 100 µg/mL phenylmethylsulphonyl fluoride). All debris was removed by centrifugation at 14,000× g for 10 min at 4 °C and protein concentration was quantified using the Bio-Rad protein assay with BSA as a standard. Equivalent amounts of protein were resolved using denaturing sodium dodecyl sulphate-polyacrylamide gel electrophoresis (SDS-PAGE), followed by transfer to PVDF membranes (Bio-Rad). […]
(§7) Densitometry of the Western blots was performed using the ImageJ program. […] Data were analyzed by one-way ANOVA followed by Bonferroni t-test or by paired t-test when comparisons were among two groups. […]

Data set [13] deals with iNOS expression in Bv.2 microglial cells. Briefly: LPS-induced iNOS protein expression (Western blot). In kind it is cell-based, mouse. As to conditions: Bv.2 cells, LPS 200 ng/mL, compound at 50 μM (five-fold higher concentration). The method, then:
as §5, §6, §7

The subject of the next data set is Bv.2 microglia cells. Briefly: Cellular viability by crystal violet staining. In kind it is cell-based, mouse. As to conditions: Bv.2 cells, 24 h, different concentrations. The method, then: as §5
After cell treatments, the medium was discarded, and the remaining viable adherent cells were stained with crystal violet (0.2% w/v in 2% ethanol) for 20 min. After this time, plates were rinsed with tap water and allowed to dry, and 1% SDS was added to solubilize them. The absorbance of each plate was read spectrophotometrically at 560 nm.

[14] abbreviates: THP-1 cells differentiated to macrophages with PMA.

Take `O=C1OC[C@@H]2[C@@H](O)[C@H](O)[C@@H](O)[C@@H]([Se]c3ccccc3)N12` [Compound 8, (1R)-1-Phenylseleno-5N,6O-oxomethylidenenojirimycin]: the EC50 at 72 h was 172 ± 27 µM in data set [1] and above 200 µM in data set [8]. Further, the GI50 in [2], in [4], in data set [5], in data set [7], in data set [9] and in data set [10] was above 100 µM throughout. For the same compound, in [3], the concentration for a half-maximal effect (EC50) is above 20 µM. For the same compound, the “antiproliferative activity” value in data set [6] (panel of six tumor cell lines) was “lack of activity; also recorded: inactive”.

Consider `CCCCCCCCS[C@@H]1[C@H](O)[C@@H](O)[C@H](O)[C@H]2COC(=O)N21` [Compound 13, (1R)-1-octylthio-5N,6O-oxomethylidenenojirimycin], for which the EC50 at 72 h in [1] (MRC-5 cells) came to 58.1 ± 12.6 µM; in [8] (setting [14]) it was 122 ± 5.79 µM. Further, the GI50 was 73 µM in data set [2]; above 100 µM in data set [4]; 95 µM in data set [5]; at least 36 µM in data set [6]; 92 µM in data set [7]; 58 µM in data set [9]. In [10], the GI50 is 89 µM. Further, the EC50 in data set [3] is above 20 µM.

With `CCCCCCCC[Se][C@@H]1[C@H](O)[C@@H](O)[C@H](O)[C@H]2COC(=O)N21` [Compound 9, (1R)-1-Octylseleno-5N,6O-oxomethylidenenojirimycin], the EC50 at 72 h in data set [1] is 94.3 ± 4.95 µM; in data set [8] it was above 200 µM. Further, the GI50 in data set [2] is above 100 µM; in data set [4] it was above 100 µM; in data set [5], 71 µM; in data set [6], at least 36 µM; in data set [7] it was 49 µM; in [9], 36 µM. The compound also registered a GI50 in data set [10] of 64 µM. Also, in [3], the EC50 is above 20 µM.

In the case of `CCCCCCCCCCCCS[C@@H]1[C@H](O)[C@@H](O)[C@H](O)[C@H]2COC(=O)N21` [Compound 14, (1R)-1-dodecylthio-5N,6O-oxomethylidenenojirimycin], the “concentration at which nitrite production reached basal level” value in data set [11] was found to be 50 µM. In addition, the EC50 at 72 h in [1] (MRC-5 cells) was 43.1 ± 9.83 µM; in data set [8] (setting [14]) it was 70.5 ± 3.75 µM. Moreover, the GI50 is 17 µM in data set [2]; 18 µM in data set [4]; 18 µM in data set [5]; 16 to 28 µM in data set [6]; 17 µM in [7]; 16 µM in data set [9]. In addition, the 50% growth inhibitory concentration (GI50) in [10] worked out at 18 µM. Moreover, the EC50 in data set [3] was above 20 µM. Moreover, in data set [12], the “induction of arginase-1” value is recorded as “did not induce arginase-1 expression”. In [13], the “iNOS increase remaining after treatment (LPS alone 20-fold)” value is listed as “about 8 fold”. In the data set with Bv.2 microglia cells, the “effect on cellular viability” value was “none of the concentrations used induced a negative effect”.

For the compound `CCCCCCCCCCCCN[C@@H]1[C@H](O)[C@@H](O)[C@H](O)[C@H]2COC(=O)N21` [Compound 12, (1S)-1-Amino-N-dodecyl-5N,6O-oxomethylidene-1-deoxynojirimycin], the values for the EC50 at 72 h in [1] (MRC-5 cells) and in data set [8] (setting [14]) were 49.6 ± 4.2 µM and 122 ± 13.3 µM, respectively. Also, the GI50 is 23 µM in data set [2]; 30 µM in data set [4]; 23 µM in data set [5]; 18 to 30 µM in [6]; 23 µM in [7]; 18 µM in [9]. Also, growth in data set [10] was halved (GI50) at 22 µM. The EC50 in [3] was above 20 µM.

Consider `CCCCCCCCN[C@@H]1[C@H](O)[C@@H](O)[C@H](O)[C@H]2COC(=O)N21` [Compound 11, (1S)-1-amino-N-octyl-5N,6O-oxomethylidene-1-deoxynojirimycin], for which the EC50 at 72 h was determined as 155 ± 5.3 µM in data set [1] (MRC-5 cells) and 209 ± 10.3 µM in data set [8] (setting [14]). In addition, the GI50 in data set [2], in data set [4], in data set [5], in data set [6], in data set [7] and in data set [9] was above 100 µM in each case. Further, the GI50 in data set [10] was above 100 µM. The compound further registered an EC50 in [3] above 20 µM.

With `CCCCCCCCCCCCCCCCOP(=O)([O-])OCC[N+](C)(C)C` [Miltefosine, reference compound], the EC50 at 72 h in data set [1] (MRC-5 cells) was determined as 57.6 ± 6.38 µM; in data set [8] (setting [14]), 26.9 ± 3.08 µM. For the same compound, in data set [3], the EC50 came out at 0.44 ± 0.08 µM.
